pIC50: −log10 of the molar value.
How the values were obtained:
Assay type in all cases: cell-based
[1] = test system: phosphorylated TANK-binding kinase 1 (pTBK1); assay: UVB-induced pTBK1 in HaCaT cells; conditions: Homo sapiens, light or radiation study, pTBK1 response curves, 72 hours compound treatment, UVB
Protocol: pTBK1 is an important signaling molecule in regulating inflammatory responses. HaCaT cells were plated in 6-well plates at a density of ˜100 k/well in HaCaT media (DMEM, optimized 1× (Addex Bio)+ 1% pen strep (Gibco)^+ 5% heat inactivated fetal bovine serum (Gibco)). The cells were then cultured at 37° C. overnight. The next day, the cells were treated with the test compounds. Each test compound was diluted and added to media aliquots to provide desired concentrations. To add the test compound+media mixture, an equivalent amount of media from each well was aspirated and then replenished with the media dosed with the test compound. The cells were then cultured for an additional 72 hours with compound treatment prior to UVB exposure.
The media was then aspirated from the wells, with the remaining cells at least 80% confluent in each well. One mL of PBS was then added to each well, and the plate was then placed under a UVB lamp. A UVB sensor was positioned near the plate to register the plate's exposure. The cells were exposed to the UVB light until they reached 0.1 mJ/cm2. Then the plate was covered and transferred to a sterile hood for processing.
The PBS was aspirated out of the wells, and the wells were replenished with 3 mL fresh culture media. The cells were then cultured for an additional 24 hours, and samples were processed 24 hours post-UVB exposure. To process the samples, the media was aspirated, the plate placed on ice, and the cells washed with cold PBS, which was then aspirated off. Another 1 mL of cold PBS was added to each well. The cells were then scraped in the cold PBS solution and transferred to conical tubes on ice. The cells were then spun at ≥1000 RCF at 4° C. for 5 minutes. The cells were then resuspended in 1 mL of cold PBS and transferred to a microcentrifuge tube. The cells were spun at ≥1000 RCF at 4° C. for another 5 minutes, and the PBS was aspirated off. The cell pellet was prepared for lysis.
A RIPA lysis buffer (#BP-115, Boston BioProducts) was added to a Halt protease and […] inhibitor cocktail (#78440, ThermoFisher), and the mixture was cooled on ice. About 30 μL of the lysis buffer mix was added to the cells. The samples were briefly vortexed and then incubated on ice for at least 15 minutes. The cells were then spun≥1000 RCF at 4° C. for 5 minutes and the supernatant was transferred to a clean tube. The protein concentration of the cell lysate was measured using Pierce™ Rapid Gold BCA Protein Assay Kit #AF3225 (ThermoFisher). ELISA analysis was run on select samples using one of the following kits: • a. FastScan™ Phospho-TBK1/NAK (Ser172) ELISA Kit #46948 (Cell Signaling Technologies) • b. FastScan™ Total TBK1/NAK ELISA Kit #15816 (Cell Signaling Technologies) • c. FastScan™ Phospho-STING (Ser366) ELISA Kit #82083 (Cell Signaling Technologies) • d. FastScan™ Phospho-IRF-3 (Ser396) ELISA Kit #50386 (Cell Signaling Technologies) • e. FastScan™ Total IRF-3 ELISA Kit #29771 (Cell Signaling Technologies) • f. Phospho-NAK/TBK1 (S172) ELISA Kit (ab279952) (Abcam) • g. Phospho-IRF3 (S386) ELISA Kit (ab279833) (Abcam) Part II—Results
In the table “A” represents values≤0.50 μM; “B” represents values from >0.50 μM to ≤2.0 μM; “C” represents values from >2.0 μM to ≤5.0 μM; “D” represents values from >5.0 μM to ≤10 μM; and “E” represents values>10 μM.

PC3 cells = assay: Mitochondria toxicity assay with PC3 cells, cytotoxicity (Cell Titer Glo); conditions: Homo sapiens, PC-3, 120 h, 5 days treatment
Summary of the method: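 PC3 cells in F-12K with 10% FBS exposed to a compound dose titration for 5 days at 37° C, 5% CO2. Viability by Cell Titer Glo luminescence after 30 min at room temperature; values binned A (<1.0 μM) to E (>100.0 μM).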

[2] = test system: SDH-A (succinate dehydrogenase-A); assay: Mitochondria toxicity assay with PC3 cells, in-cell ELISA SDH-A; conditions: 5 days treatment
Summary of the method: (§1)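 This in-cell ELISA was run on fixed, permeabilized PC3 cells after 5-day exposure to titrated compound, with cytotoxicity measured on a duplicate plate. Results are reported as categories A (<1.0 μM) to E (>100.0 μM).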

[3] = Mitochondria toxicity assay with PC3 cells, in-cell ELISA COX-1; conditions: 5 days treatment
Summary of the method: as §1

7S mitochondria DNA = assay: Mitochondria DNA assay with PC3 cells; conditions: Homo sapiens, PC-3, 120 h, 5 days, 7S mitochondria DNA level by qPCR relative to 18S or GAPDH
Protocol: Exemplary compounds were tested for their effect on levels of 7S mitochondria DNA, and the DNA of housekeeping genes 18S and GAPDH. Reduction of 7S mitochondria DNA indicates off-target inhibition of mitochondrial DNA synthesis, which leads to mitochondrial toxicity. Assay procedures and results are described below.
PC3 cells were purchased from ATCC and cultured in F-12 Kaighn's modified medium (Hyclone), 10% heat-inactivated fetal bovine serum (Gibco), 1% Penicillin-Streptomycin (Invitrogen). PC3 cells were treated with a dose titration of a test compound on 6 well plates for 5 days at 37° C., 5% CO2 in a humidified incubator.
Cells were harvested and mitochondria DNA extraction was performed using DNeasy Blood & Tissue Kit (Qiagen) according to the manufacture's instruction.
Mitochondria 7S and housekeeping genes 18S and GAPDH DNA was quantified by multiplex qPCR with the PowerUp™ SYBR™ Green system (Applied Biosystems). Prepare reaction mix consisting of 5 μl of 2× PowerUp™ SYBR™ Green Master Mix, 1 μl of 5 μM Primers for 7S, 18S, or GAPDH, 4 μl of DNA template from DNA extraction above. The primer sequences are below:
qPCR was performed on QuantStudio™ 7 Flex RealTime qPCR system (Applied Biosystems) as set forth below: • a. 50° C. for 2 minutes, then • b. 95° C. for 2 minutes, then • c. 95° C. for 15 seconds, then • d. 60° C. for 60 seconds, • where then steps (c) and (d) were repeated 60 times.
Threshold was calculated by QuantStudio™ 7 Flex Software (ThermoFisher Scientific) using the default settings. Ct values were used to evaluate the relative mitochondria DNA (mtDNA) level using the following formula: ΔCt=Ct (7S target gene)−Ct (18S) or ΔCt=Ct (7S target gene)−Ct (GAPDH). Relative mtDNA level=2^−Δct. Expression fold over DMSO control=2^−Δct (compound treated group)/2^−Δct (DMSO group)
In the table “A” represents values≤0.1 μM; “B” represents values from >0.1 μM to ≤1.0 μM; “C” represents values from >1.0 μM to ≤10.0 μM; “D” represents values from >10.0 μM to ≤100.0 μM; and “E” represents values>100.0 μM.

THP1-Dual KO-TREX1 cells = assay: THP1 TREX1 KO inhibition assay (type 1 interferon response); conditions: Homo sapiens, 144 h, type 1 interferon (QUANTI-LUC), 1 μM 5-aza-2′-deoxycytidine, six days
Summary of the method: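 THP1-Dual KO-TREX1 cells were treated with a dose titration of compound, alone or with 1 μM 5-aza-2′-deoxycytidine, for six days at 37 °C. Type 1 interferon was read as secreted luciferase (QUANTI-LUC) in the supernatant, and viability by CellTiter-Glo luminescence.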

pIC50 (7S mitochondria DNA) | pIC50 (THP1-Dual KO-TREX1 cells) | Compound | pIC50 [1] | pIC50 (PC3 cells) | pIC50 [2] | pIC50 [3]
– | – | Nc1ccn([C@H]2C[C@H](O)[C@](CO)(C(F)(F)F)O2)c(=O)n1 [Compound 21, 4-amino-1-((2R,4S,5R)-4-hydroxy-5-(hydroxymethyl)-5-(trifluoromethyl)tetrahydrofuran-2-yl)pyrimidin-2(1H)-one] | < 5.00 | < 4.00 | < 4.00 | < 4.00
< 4.00 | < 6.00 | CC(C)C(=O)OC[C@@]1(CCl)O[C@@H](n2ccc(N)nc2=O)[C@H](F)[C@@H]1OC(=O)C(C)C [Compound 24, (2R,3R,4R,5R)-5-(4-amino-2-oxopyrimidin-1(2H)-yl)-2-(chloromethyl)-4-fluoro-2-((isobutyryloxy)methyl) tetrahydrofuran-3-yl isobutyrate] | – | < 4.00 | < 4.00 | < 4.00
6.00 to 7.00 | < 6.00 | Nc1ccn([C@@H]2O[C@@](CO)(CCl)[C@@H](O)[C@H]2F)c(=O)n1 [Compound 31, 4-amino-1-((2R,3R,4R,5R)-5-(chloromethyl)-3-fluoro-4-hydroxy-5-(hydroxymethyl)tetrahydrofuran-2-yl)pyrimidin-2(1H)-one] | – | 4.30 to 5.00 | 4.30 to 5.00 | 4.30 to 5.00
< 4.00 | < 6.00 | Nc1nc(=O)n([C@@H]2O[C@@](CO)(CCl)[C@@H](O)[C@@H]2O)cc1F [Compound 73, 4-amino-1-((2R,3S,4S,5R)-5-(chloromethyl)-3,4-dihydroxy-5-(hydroxymethyl)tetrahydrofuran-2-yl)-5-fluoropyrimidin-2(1H)-one] | – | < 4.00 | < 4.00 | < 4.00
< 4.00 | < 6.00 | CC[C@]1(CO)O[C@@H](n2cc(F)c(N)nc2=O)[C@@H](F)[C@@H]1O [Compound 77, 4-amino-1-[(2R,3S,4R,5R)-5-ethyl-3-fluoro-4-hydroxy-5-(hydroxymethyl)oxolan-2-yl]-5-fluoropyrimidin-2-one] | – | < 4.00 | < 4.00 | < 4.00
< 4.00 | < 6.00 | Nc1nc(=O)n([C@@H]2O[C@@](CO)(CBr)[C@@H](O)[C@@H]2F)cc1F [Compound 86, 4-amino-1-[(2R,3S,4R,5R)-5-(bromomethyl)-3-fluoro-4-hydroxy-5-(hydroxymethyl)oxolan-2-yl]-5-fluoropyrimidin-2-one] | – | < 4.00 | < 4.00 | < 4.00
< 4.00 | < 6.00 | C#C[C@]1(CO)O[C@@H](n2cc(F)c(N)nc2=O)[C@@H](O)[C@@H]1O [Compound 116, 4-amino-1-((2R,3S,4S,5R)-5-ethynyl-3,4-dihydroxy-5-(hydroxymethyl)tetrahydrofuran-2-yl)-5-fluoropyrimidin-2(1H)-one] | – | < 4.00 | < 4.00 | < 4.00
< 4.00 | 7.00 to 7.30 | [N-]=[N+]=N[C@]1(CO)O[C@@H](c2cc(I)c3c(N)ncnn23)C[C@@H]1O [Compound 161, (2R,3S,5R)-5-(4-amino-5-iodopyrrolo[2,1-f][1,2,4]triazin-7-yl)-2-azido-2-(hydroxymethyl)tetrahydrofuran-3-ol] | – | 5.00 to 6.00 | 5.00 to 6.00 | 5.00 to 6.00
< 4.00 | < 6.00 | CC(C)C(=O)OC[C@@]1(CCl)O[C@@H](n2cc(F)c(N)nc2=O)[C@@H](F)[C@@H]1OC(=O)C(C)C [Compound 173, (2R,3R,4S,5R)-5-(4-amino-5-fluoro-2-oxopyrimidin-1(2H)-yl)-2-(chloromethyl)-4-fluoro-2-((isobutyryloxy)methyl) tetrahydrofuran-3-yl isobutyrate] | – | < 4.00 | < 4.00 | 4.00 to 4.30
